The values that follow come from US8906904B2, “Alkoxy pyrazoles as soluble guanylate cyclase activators” (Boehringer Ingelheim International GmbH, priority 2012, dated 2014).

Some results are limits rather than exact numbers.

The target in data set [1] is T1, human soluble guanylate cyclase alpha 1 and beta 1 subunits (sGC) (Homo sapiens, UniProt Q02108+Q02153).
T1 construct: expressed in transfected cells; host or cells: Chinese hamster ovary (CHO) cells, stably transfected
T1 sequence (Q02108 1-690): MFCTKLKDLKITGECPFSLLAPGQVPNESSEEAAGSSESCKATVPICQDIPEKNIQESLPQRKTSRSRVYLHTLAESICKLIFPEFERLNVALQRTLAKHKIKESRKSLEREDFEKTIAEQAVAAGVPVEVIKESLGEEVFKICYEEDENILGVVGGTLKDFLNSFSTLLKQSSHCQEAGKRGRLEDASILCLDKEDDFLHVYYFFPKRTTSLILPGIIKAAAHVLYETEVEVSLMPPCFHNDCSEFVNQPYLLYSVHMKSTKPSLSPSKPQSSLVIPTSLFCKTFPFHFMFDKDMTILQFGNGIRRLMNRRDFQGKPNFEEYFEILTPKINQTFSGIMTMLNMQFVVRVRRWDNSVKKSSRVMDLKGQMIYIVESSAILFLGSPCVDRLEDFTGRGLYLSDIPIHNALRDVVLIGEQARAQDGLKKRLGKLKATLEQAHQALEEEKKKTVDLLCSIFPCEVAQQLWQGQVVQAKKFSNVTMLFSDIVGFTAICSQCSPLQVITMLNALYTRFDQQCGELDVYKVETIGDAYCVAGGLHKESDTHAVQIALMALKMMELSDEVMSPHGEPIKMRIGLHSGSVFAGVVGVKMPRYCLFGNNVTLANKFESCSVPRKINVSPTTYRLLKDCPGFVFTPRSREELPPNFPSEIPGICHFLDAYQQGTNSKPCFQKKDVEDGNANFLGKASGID
T1 sequence (Q02153 1-619): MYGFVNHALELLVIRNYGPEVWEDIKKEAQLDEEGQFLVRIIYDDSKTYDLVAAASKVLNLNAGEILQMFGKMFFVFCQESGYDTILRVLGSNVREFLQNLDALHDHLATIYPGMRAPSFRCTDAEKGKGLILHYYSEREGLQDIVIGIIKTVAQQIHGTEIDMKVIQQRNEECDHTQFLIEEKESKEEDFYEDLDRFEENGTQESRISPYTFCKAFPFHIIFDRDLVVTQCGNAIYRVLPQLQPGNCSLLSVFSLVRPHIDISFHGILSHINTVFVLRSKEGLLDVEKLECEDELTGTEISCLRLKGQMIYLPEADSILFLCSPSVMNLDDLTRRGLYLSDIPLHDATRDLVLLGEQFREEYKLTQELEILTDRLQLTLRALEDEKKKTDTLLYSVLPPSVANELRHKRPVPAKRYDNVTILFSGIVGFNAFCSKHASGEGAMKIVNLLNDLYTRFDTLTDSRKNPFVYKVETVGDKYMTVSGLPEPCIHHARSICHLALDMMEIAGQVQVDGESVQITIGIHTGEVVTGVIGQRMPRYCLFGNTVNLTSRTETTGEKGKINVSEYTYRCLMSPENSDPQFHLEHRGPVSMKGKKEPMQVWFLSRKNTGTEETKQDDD
Nature of the data set: sGC cellular activator assay (cGMP, HTRF). Format: cell-based. The conditions noted are these: CHO cells stably expressing human sGC alpha 1/beta 1, preincubated with 40 microM ODQ; cGMP readout; assay run with and without 50% human serum, Table 2 does not say which. The procedure, abridged:
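First, CHO-sGC (human α1β1) cells get 1 h ODQ at 40 microM with IBMX and 0.1% BSA. Finally, cGMP is quantified by HTRF and EC50 computed.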

Data set [2] is described as follows: human liver microsome (HLM) metabolic stability assay. The class given is in vitro ADME. The conditions noted are these: human liver microsomes; % hepatic blood flow calculated from t1/2. The gist of the method:
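Compounds at 1 uM incubated with human liver microsomes plus NADPH at 37° C., sampled at 0, 5, 15, 30 and 60 min into cold acetonitrile and quantified by LC/MS/MS. t½ from the slope of ln % remaining vs time; CLint, CLh and % Qh derived from it (n=1).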

Turning to `CCOc1c(C(=O)O)cnn1-c1cccc(-c2cccc(C)c2OCc2ccc3c(c2C)CCN(CC2COCCO2)C3)n1` (stereo in doubt) [Compound 185, 1-{6-[2-(2-(S)-1-[1,4]Dioxan-2-ylmethyl-5-methyl-1,2,3,4-tetrahydro-isoquinolin-6-ylmethoxy)-3-methyl-phenyl]-pyridin-2-yl}-5-ethoxy-1H-pyrazole-4-carboxylic acid], in data set [1], the EC50 turned out to be 30 nM. In data set [2], the “HLM (% Qh)” value is on record as under 24 % Qh.

`COc1c(C(=O)O)cnn1-c1cccc(-c2cccc(C)c2OCc2ccc3c(c2)CCN(C2CCOC2)C3)n1` (centres unmarked) [Compound 15] registered an EC50 in data set [1] of 28 nM. The “HLM (% Qh)” value in data set [2] is under 24 % Qh.

In the case of `COc1c(C(=O)O)cnn1-c1cccc(-c2cccc(C)c2OCc2ccc3c(c2C)CCN(C2COC2)C3)n1` [Compound 16], in data set [1], a half-maximal response (EC50) required 23 nM. Also, the “HLM (% Qh)” value in data set [2] is listed as under 24 % Qh.

For `COc1c(C(=O)O)cnn1-c1cccc(-c2cccc(C)c2OCc2ccc3c(c2Cl)CCN(C2COC2)C3)n1` [Compound 17], a half-maximal response in data set [1] (EC50) required 18 nM. The “HLM (% Qh)” value in data set [2] was 31 % Qh.

Compound `COc1c(C(=O)O)cnn1-c1cccc(-c2cccc(C)c2OCc2ccc3c(c2Cl)CCN(C2CCOCC2)C3)n1` [Compound 18] returned an EC50 in data set [1] of 8 nM. In addition, the “HLM (% Qh)” value in data set [2] is recorded as under 24 % Qh.

Consider `COc1c(C(=O)O)cnn1-c1cccc(-c2cccc(C)c2OCc2ccc3c(c2Cl)CCN(CC2(C)COC2)C3)n1` [Compound 19], for which the midpoint of the response in data set [1], the EC50, lay at 17 nM. Besides, in data set [2], the “HLM (% Qh)” value is 29 % Qh.

`COc1c(C(=O)O)cnn1-c1cccc(-c2cccc(C)c2OCc2ccc3c(c2Cl)CCN(C2CCC2)C3)n1` [Compound 20] had an EC50 in data set [1] of 24 nM. Moreover, the “HLM (% Qh)” value in data set [2] is listed as 38 % Qh.

For the compound `COc1c(C(=O)O)cnn1-c1cccc(-c2cccc(C)c2OCc2ccc3c(c2Cl)CCN(CC(C)(C)C)C3)n1` [Compound 21], the EC50 in data set [1] came to 17 nM. Besides, in data set [2], the “HLM (% Qh)” value is under 24 % Qh.

As to `COc1c(C(=O)O)cnn1-c1cccc(-c2cccc(C)c2OCc2ccc3c(c2Cl)CCN(C2CCOC2)C3)n1` (centres unmarked) [Compound 22], in data set [1], it took 14 nM to reach a half-maximal effect (EC50). Also, the “HLM (% Qh)” value in data set [2] is reported as 33 % Qh.

Consider `COCC(C)N1CCc2cc(COc3c(C)cccc3-c3cccc(-n4ncc(C(=O)O)c4OC)n3)ccc2C1` (centres unmarked) [Compound 23], for which the response in data set [1] was half-maximal at 52 nM (EC50). Besides, in data set [2], the “HLM (% Qh)” value is given as under 24 % Qh.

For `COc1c(C(=O)O)cnn1-c1cccc(-c2cccc(C)c2OCc2ccc3c(c2)CCN(CC2CC2)C3)n1` [Compound 24], a half-maximal effect in data set [1] (EC50) was put at 54 nM. Also, in data set [2], the “HLM (% Qh)” value is reported as under 24 % Qh.

In data set [1], `COc1c(C(=O)O)cnn1-c1cccc(-c2cccc(C)c2OCc2ccc3c(c2)CCN(CC2CCC2)C3)n1` [Compound 25] displayed an EC50 of 16 nM. The “HLM (% Qh)” value in data set [2] is reported as 29 % Qh.

For the compound `COc1c(C(=O)O)cnn1-c1cccc(-c2cccc(C)c2OCc2ccc3c(c2)CCN(CC2CC(F)(F)C2)C3)n1` [Compound 26], a half-maximal response in data set [1] (EC50) required 5 nM. Also, the “HLM (% Qh)” value in data set [2] is listed as 29 % Qh.

`COc1c(C(=O)O)cnn1-c1cccc(-c2cccc(C)c2OCc2ccc3c(c2C)CCN(C2CCOCC2)C3)n1` [Compound 27] yielded an EC50 in data set [1] of 14 nM. Further, in data set [2], the “HLM (% Qh)” value is recorded as under 24 % Qh.

In the case of `COc1c(C(=O)O)cnn1-c1cccc(-c2cccc(C)c2OCc2ccc3c(c2C)CCN(CC2(C)COC2)C3)n1` [Compound 28], a half-maximal response in data set [1] (EC50) required 13 nM. The “HLM (% Qh)” value in data set [2] is reported as under 24 % Qh.

The compound `COc1c(C(=O)O)cnn1-c1cccc(-c2cccc(C)c2OCc2ccc3c(c2C)CCN(CC2CC(F)(F)C2)C3)n1` [Compound 29] returned an EC50 in data set [1] of 3.5 nM. Besides, the “HLM (% Qh)” value in data set [2] was 28 % Qh.

`COc1c(C(=O)O)cnn1-c1cccc(-c2cc(C)cc(C)c2OCc2ccc3c(c2C)CCN(C2CCOCC2)C3)n1` [Compound 180] returned an EC50 in data set [1] of 28 nM. Further, in data set [2], the “HLM (% Qh)” value is on record as under 24 % Qh.

`COc1c(C(=O)O)cnn1-c1cccc(-c2cc(C)cc(C)c2OCc2ccc3c(c2)CCN(C2CCOCC2)C3)n1` [Compound 181] returned an EC50 in data set [1] of 62 nM. The “HLM (% Qh)” value in data set [2] is on record as under 24 % Qh.

In data set [1], `COc1ccc(OCc2ccc3c(c2C)CCN(C2CCOCC2)C3)c(-c2cccc(-n3ncc(C(=O)O)c3OC)n2)c1` [Compound 182] returned an EC50 of 370 nM. Moreover, in data set [2], the “HLM (% Qh)” value is on record as under 24 % Qh.

Turning to `COc1c(C(=O)O)cnn1-c1cccc(-c2cccc(C)c2OCc2ccc3c(c2C)CCN(C2CCOCC2)CC3)n1` [Compound 184], in data set [1], the response was half-maximal at 12 nM (EC50). Besides, the “HLM (% Qh)” value in data set [2] is reported as under 24 % Qh.

Take `COc1c(C(=O)O)cnn1-c1cccc(-c2cccc(C)c2OCc2cc(C)c3c(c2)CCN(C2COC2)C3)n1` [Compound 186]: in data set [1], the EC50 came to 16 nM. In addition, the “HLM (% Qh)” value in data set [2] is given as under 24 % Qh.

Compound `COc1c(C(=O)O)cnn1-c1cccc(-c2cccc(C)c2OCc2ccc3c(c2)CCN(C[C@@H]2CCOC2)C3)n1` [Compound 188] came in with an EC50 in data set [1] of 8.6 nM. Besides, the “HLM (% Qh)” value in data set [2] is listed as under 24 % Qh.

Consider `CCOc1c(C(=O)O)cnn1-c1cccc(-c2cccc(C)c2OCc2ccc3c(c2C)CCN(C[C@@H]2CCOC2)C3)n1` [Compound 189], for which the EC50 in data set [1] turned out to be 12 nM. In data set [2], the “HLM (% Qh)” value is listed as 26 % Qh.

As to `CCOc1c(C(=O)O)cnn1-c1cccc(-c2cccc(C)c2OCc2ccc3c(c2C)CCN(CC2(C)COC2)CC3)n1` [Compound 190], the EC50 in data set [1] is 23 nM. In addition, in data set [2], the “HLM (% Qh)” value is on record as 43 % Qh.

Consider `COc1c(C(=O)O)cnn1-c1cccc(-c2cccc(C)c2OCc2ccc3c(c2C)CCN(C[C@@H]2CCOC2)C3)n1` [Compound 191], for which, in data set [1], a half-maximal effect (EC50) was put at 3.3 nM. Moreover, in data set [2], the “HLM (% Qh)” value is under 24 % Qh.

In data set [1], `CCOc1c(C(=O)O)cnn1-c1cccc(-c2cccc(C)c2OCc2ccc3c(c2C)CCN(C[C@H]2CCOC2)C3)n1` [Compound 193] gave an EC50 of 12 nM. Further, the “HLM (% Qh)” value in data set [2] is given as under 24 % Qh.

As for `CCOc1c(C(=O)O)cnn1-c1cccc(-c2cccc(C)c2OCc2ccc3c(c2C)CCN(C2CCOCC2)C3=O)n1` [Compound 194], the EC50 in data set [1] worked out at 87 nM. In addition, the “HLM (% Qh)” value in data set [2] was under 24 % Qh.

As to `CCOc1c(C(=O)O)cnn1-c1cccc(-c2cccc(C)c2OCc2cc(C)c3c(c2)CCN([C@@H]2CCCOC2)C3)n1` [Compound 195], in data set [1], the EC50 was found to be 4.7 nM. Besides, in data set [2], the “HLM (% Qh)” value is given as under 24 % Qh.

Compound `CCOc1c(C(=O)O)cnn1-c1cccc(-c2cccc(C)c2OCc2ccc3c(c2C)CCN(C(C)COC)CC3)n1` (centres unmarked) [Compound 196] had an EC50 in data set [1] of 13 nM. Moreover, the “HLM (% Qh)” value in data set [2] is reported as under 24 % Qh.

Regarding `CCOc1c(C(=O)O)cnn1-c1cccc(-c2cccc(C)c2OCc2cc(C)c3c(c2)CCN([C@H]2CCCOC2)C3)n1` [Compound 197], in data set [1], the midpoint of the response, the EC50, lay at 19 nM. The “HLM (% Qh)” value in data set [2] is under 24 % Qh.

As to `COc1c(C(=O)O)cnn1-c1cccc(-c2cccc(C)c2OCc2ccc3c(c2C)CCN(C[C@@H]2CCCCO2)C3)n1` [Compound 198], in data set [1], it took 5.3 nM to reach a half-maximal effect (EC50). For the same compound, the “HLM (% Qh)” value in data set [2] is given as under 24 % Qh.

Regarding `COc1c(C(=O)O)cnn1-c1cccc(-c2cccc(C)c2OCc2ccc3c(c2C)CCN(C[C@H]2CCCCO2)C3)n1` [Compound 199], the midpoint of the response in data set [1], the EC50, lay at 9 nM. In addition, the “HLM (% Qh)” value in data set [2] is under 24 % Qh.

Compound `CCOc1c(C(=O)O)cnn1-c1cccc(-c2cccc(C)c2OCc2cc(C)c3c(c2)CCN(CC2(C)COC2)C3)n1` [Compound 200] came in with an EC50 in data set [1] of 20 nM. The “HLM (% Qh)” value in data set [2] is on record as 40 % Qh.

Compound `COc1c(C(=O)O)cnn1-c1cccc(-c2cccc(C)c2OCc2cc(F)c3c(c2)CCN(C2CCOCC2)C3)n1` [Compound 201] had an EC50 in data set [1] of 12 nM. The “HLM (% Qh)” value in data set [2] is under 24 % Qh.

The EC50 is the concentration at which the effect is half-maximal. High values mean a need for much substance, low ones an effect from little substance.
